Source: patent US9446007B2, “Methods for maintaining or improving health, well-being and/or a physiological function in a subject” (DYNAMIS THERAPEUTICS, INC., priority 2012, dated 2016)

Assays:
[1] = test system: advanced glycation end products (AGE products); test: Rat study: advanced glycation end product in skin (fluorescence ratio); format: in vivo, Sprague-Dawley rat; conditions: 32 weeks; for Mean AGE/Total Protein in skin: water 0.594 ± 0.173; for decrease of AGE product in the skin vs untreated rats: not statistically significant
Experimental: At the end of 32 weeks the ratio of advanced glycation end products (AGE products) to total protein was determined in the skin using the ratio of fluorescence measurements. A 3 cm^2 biopsy was taken from the shaved dorsal surface of the rats. The dermis was separated from the epidermis via immersion in water at 55° C. for 30 seconds, followed by gentle scraping of epidermis. The dermis was placed onto a wire screen cut to fit diagonally into fluorescence spectrometer. Fluorescence was recorded on PE 650-40 fluorescence spectrometer using front surface (“diagonal”) geometry. Fluorescence intensities were monitored at excitation/emission wavelengths of 270/300 nm, 270/330 nm, 270/360 nm, 270/400 nm, 325/400 nm, 270/450 nm and 370/450 nm. For direct comparison at the same excitation wavelength, ratios of I(270/330 nm) to I(270/450 nm) were recorded. These ratios were corrected for different instrumental responses at 330 and 450 nm.

[2] = test system: imidazolone; test: Rat study: 3DG adduct (imidazolone) levels in skin, fluorescent immunohistochemistry; format: in vivo, Sprague-Dawley rat; conditions: 50 mM, 32 weeks
Experimental: Eighteen male Sprague-Dawley rat (ACE) weighing 150-175 g were divided into 3 groups (n=6) and fed a normal diet supplemented with 0 mM, 25 mM, or 75 mM meglumine in the drinking water for 32 weeks. The presence of imidazolone, a 3DG-derived adduct formed from the reaction of 3DG and arginine was measured by fluorescent immunohistochemistry, using a monoclonal antibody to imidazolone, AG-1 (T. Niwa). A piece of skin from each rat on water and 50 mM meglumine was fixed in formalin, and thin sections were treated with AG-1 antibody and then a fluorescent second antibody, and each slide was scanned using a fluorescence microscope. The total florescence due to imidazolone over each slide was measured.

[3] = test system: isoprostane; test: Rat study: urinary isoprostane levels, competitive ELISA; format: in vivo, Sprague-Dawley rat; conditions: 50 mM, 32 weeks
Experimental: […] Rat urine from 32 weeks was measured for the presence of isoprostane, a marker for oxidative stress using a competitive ELISA (Oxford Biochemicals, Oxford Mich.). All values were normalized to creatinine levels to control for differences in urine volume. Creatinine was measured using a kit from Oxford Biochemicals.

[4] = test system: SV129 mice; test: Strength testing in mice (inverted metal grid); format: in vivo; conditions: 18 mM meglumine hydrochloride in drinking water, 6 weeks; n=15; control 6.3±3.4; p=0.0006
Description: The grip strength test is a widely-used non-invasive method designed to evaluate mouse limb strength that has been used to investigate the effects of neuromuscular disorders and compound under testing. It is based on the natural tendency of the mouse to grasp a bar or grid when it is suspended by the tail. During this test the mouse grips with both forelimbs (or hind-limbs) a single bar or a mesh. There are three kinds of grip strength tests used: Mesh Grip Test, Wire Grip Test, and Automatic Grip Strength (GS Meter). The Mesh Grip Test measures the ability of the mouse to remain clinging to an inverted or tilted surface such as a wire grid or a cage lid for a period of time, usually up to 1 minute; the Wire Grip Test measures the ability of the mouse to hang on a wire with its forepaws for a preset length of time or until grip fails, while in the Automatic Grip Strength the mouse grasps a horizontal metal bar or grid while is pulled by the tail. The bar or grid is attached to a force transducer that peak pull-force achieved on its digital display. A group of SV129 mice (n=15) and a group of mice treated with 18 mM meglumine hydrochloride in their drinking water (n=15) for 6 weeks were tested for the ability to hold on to an inverted metal grid. The length of time before falling off the grid was averaged, and the standard error was calculated.

[5] = test system: 3-Deoxyglucosone (3DG); test: Mice study: urine 3-deoxyglucosone (3DG) levels, GC-MS; format: in vivo, C57BL/6 male mice; conditions: 10, 40 or 75 mM in drinking water; age 103 weeks; vs control animals
Experimental: (§1) A group of sixteen C57BL/6 male mice at 12 weeks of age were distributed into 4 groups (n=4 each). Animals were fed a normal diet supplemented with 0 mM, 10 mM, 40 mM, or 75 mM meglumine in the drinking water. The approximate doses of meglumine were 537 mg/kg/day, 2,146 mg/kg/day, and 4,027 mg/kg/day for animals treated with, respectfully, 10 mM, 40 mM and 75 mM meglumine.
Urine was collected from animals (n=3 for all groups, except n=4 for 75 mM meglumine) at the age of 103 weeks and 3DG levels were measured using GC-MS with an internal U-[^13C]-3DG standard (FIG. 2). Prior to analysis, urine samples were treated with 2,3-diaminonapthalene overnight to derivatize 3DG, and then extracted with ethyl acetate. Urinary creatinine levels were measured with a reagent kit from Oxford Biochemicals. The 3DG/creatinine ratio (±standard deviation) is illustrated in FIG. 2.

[6] = test system: blood glucose; test: Glucose tolerance test; format: in vivo, KK.Cg-A^y/+/J yellow mice; conditions: mutant yellow mice; 18 mM meglumine hydrochloride in water for 16 weeks; 15, 30, 60 and 120 min; vs water
Experimental: Mutant KK.Cg-A^y/+/J “yellow mice” (which are prone to developing diabetes and obesity) and control KK.Cg-A^+/+/J “black mice” were fed with water or water supplemented with 18 mM meglumine hydrochloride for 16 weeks. As a comparison group, SV129 normoglycemic mice were fed with water. The animals were then fasted overnight and blood glucose measured (time 0 min). The animals were injected with glucose, and blood glucose levels measured after 15 min, 30 min, 60 min and 120 min. The results are illustrated in FIG. 8.

[7] = test system: C57BL/6 male mice; test: Mice study: longevity; format: in vivo; conditions: for average lifespan (±standard deviation): control 771±214.6
Experimental: as §1
Animals were observed daily, and date of death was noted if applicable. Four animals were found dead in their cages, and twelve were euthanized after showing symptoms of distress (hunched posture, weight loss, decreased food intake).
The average lifespan (±standard deviation) for the mice treated with 0 mM, 10 mM, 40 mM and 75 mM meglumine was 771±214.6 days, 834±124 days, 927±80.3 days and 1,027±117.5 days. Animals treated with 10 mM, 40 mM and 75 mM lived, respectively, 8.2%, 20.2%, and 33.2% longer than the control animals.

[8] = test system: imidazolone; test: Rat study: 3DG adduct (imidazolone) levels in kidney tubules and glomeruli; format: in vivo, Sprague-Dawley rat; conditions: 50 mM, 32 weeks
Experimental: Eighteen male Sprague-Dawley rat (ACE) weighing 150-175 g were divided into 3 groups (n=6) and fed a normal diet supplemented with 0 mM, 25 mM, or 75 mM meglumine in the drinking water for 32 weeks. The 3DG adduct imidazolone was measured in kidney tubules and glomeruli by fluorescent immunohistochemistry using a monoclonal antibody to imidazolone, AG-1 (T. Niwa). Kidneys from each rat on water or 50 mM meglumine were placed in formalin, and thin sections were prepared. Each slide was treated with AG-1 and then a fluorescent second antibody, and then scanned using a fluorescence microscope. The total florescence due to imidazolone over each structure measured.

[9] = test system: 3DG; test: Rat study: urinary 3DG levels, GC-MS; format: in vivo, Sprague-Dawley rat; conditions: 50 mM, 32 weeks
Experimental: The level of 3DG was measured in the urine of the rats at 32 weeks. 3DG levels were measured by GC-MS by reacting 0.1 ml of sample, to which 20 picomoles of [U-^13C] labeled 3DG had been added as an internal standard, with 1 ml of 1 mM 2,3-diaminonaphthalene (DAN) for 24 hours at room temperature. Following reaction with DAN, the sample was extracted with four volumes of ethyl acetate and then dried. The residue was dissolved in 50 μl of N-methyl-N-(trimethylsilyl)trifluoroacetamide and heated at 65° C. for 30 min. 2 μl was analyzed by GC-MS. Levels of 3DG were normalized to creatinine levels measured with reagents from Oxford Biochemicals.

CNC[C@H](O)[C@@H](O)[C@H](O)[C@H](O)CO [meglumine, (2R,3R,4R,5S)-6-methylaminohexane-1,2,3,4,5-pentol]
Mean AGE/Total Protein in skin ([1]; 25 mM in drinking water): 0.486 ± 0.187
decrease of AGE product in the skin vs untreated rats ([1]; 25 mM): 10%
Mean AGE/Total Protein in skin ([1]; 50 mM in drinking water): 0.235 ± 0.067
decrease of AGE product in the skin vs untreated rats ([1]; 50 mM): 60%
less imidazolone in skin than rats on water ([2]; not statistically significant): 25%
Fluorescence (imidazolone) in skin ([2]; water 790567 ± 83833): 593320 ± 87404
urinary isoprostane levels lower than in rats on water ([3]; not statistically significant): 22%
urinary Isoprostane ([3]; water 2.65 ± 0.236): 2.05 ± 0.283 ng/mL
length of time that the animals could hold on to the grid [4]: 17.8 ± 0.6 s
urine 3DG/creatinine ratio [5]: less than the control animals
blood glucose levels after glucose injection [6]: decreased blood glucose levels
lived longer than the control animals ([7]; 10 mM in drinking water): 8.2%
average lifespan (±standard deviation) ([7]; 10 mM in drinking water (537 mg/kg/day)): 834 ± 124 days
lived longer than the control animals ([7]; 40 mM in drinking water): 20.2%
average lifespan (±standard deviation) ([7]; 40 mM in drinking water (2,146 mg/kg/day)): 927 ± 80.3 days
lived longer than the control animals ([7]; 75 mM in drinking water): 33.2%
average lifespan (±standard deviation) ([7]; 75 mM in drinking water (4,027 mg/kg/day)): 1,027±117.5 days
less imidazolone in glomeruli than rats on water ([8]; not statistically significant): 24%
less imidazolone in tubules than rats on water ([8]; not statistically significant): 13%
Fluorescence in Tubules (imidazolone) ([8]; water 47,081,228 ± 6,407,142): 40,158,431 ± 3,644,819
Fluorescence in Glomeruli (imidazolone) ([8]; water 85,039,251 ± 13,401,970): 64,376,501 ± 7,548,981
urinary 3DG levels lower than in rats on water [9]: 33%
urinary 3DG ([9]; water 0.0891 ± 0.007): 0.0598 ± 0.004 µM
